Measurements taken from patent US3980794A, “Method for promoting growth of poultry with 3-(5-nitro-2-imidazolyl)pyrazoles” (Eli Lilly and Company, priority 1975, dated 1976).
≈ marks a conversion by molar mass, not a printed value. Read-outs that look alike come from different tables or passages of the source.

Legend:
[1] = system: Clostridium ramosum 1313; assay: Susceptibility of anaerobic bacteria, agar dilution; assay type: cell-based; details: read-out: 24 Hr. Minimum Inhibitory Concentration
[2] = system: Veillonella alcalescens 1; assay: as above; assay type: cell-based; details: read-out: 24 Hr. Minimum Inhibitory Concentration
[3] = system: Peptostreptococcus intermedius 1264; assay: as above; assay type: cell-based; details: 24 h; Peptostreptococcus intermedius 1264; read-out: 24 Hr. Minimum Inhibitory Concentration
[4] = system: Actinomyces bovis 13684; assay: as above; assay type: cell-based; details: read-out: 24 Hr. Minimum Inhibitory Concentration
[5] = system: Bacteroides fragilis sp. fragilis 1877; assay: as above; assay type: cell-based; details: 24 h, read-out: 24 Hr. Minimum Inhibitory Concentration
[6] = system: Bacteroides fragilis sp. thetaiotaomicron 1438; assay: as above; assay type: cell-based; details: 24 h, read-out: 24 Hr. Minimum Inhibitory Concentration
[7] = system: Clostridium septicum 1128; assay: as above; assay type: cell-based; details: 24 h, read-out: 24 Hr. Minimum Inhibitory Concentration
Description: (§1) The susceptibility of anaerobic bacteria, both gram positive and gram negative, to a representative number of the novel compounds of this application was determined using the agar dilution method. The bacteria used were isolated from patients hospitalized at the Indiana University Medical Center. The isolates were identified in the anaerobe laboratory of the Medical Center by the criteria established by Dowell et al., Laboratory Methods in Anaerobic Bacteriology. Public Health Serv. Publ. No. 1803 (1968) [Center for Disease Control, Atlanta, Ga.]; and by Smith et al., The Pathogenic Anaerobic Bacteria, pages 96-136 (1968) [Charles C. Thomas, Publisher, Springfield, Ill.]. All the organisms were maintained in chopped meat glucose medium (Scott Labs) at room temperature.
(§2) The method used for the agar dilution tests was based on the studies of Sutter et al., Antimicrob. Ag. Chemother. 3, 188-193 (1973). The strains of anaerobic bacteria were grown in 16 × 120 mm. tubes for 16 to 18 hours in Thioglycolate medium without indicator--135C (Becton, Dickinson and Co.), to which was added 5 mcg. of hemin per milliliter prior to autoclaving, plus 1 mg. of sodium bicarbonate and 0.1 mcg. of filter-sterilized menadione per milliliter after autoclaving. The growth tubes for the bacteria Veillonella alcalescens were additionally supplemented with 5 mg. of sodium lactate per milliliter. The strains were adjusted to the turbidity of the No. 1 McFarland standard in Thioglycolate medium without indicator--135C containing an additional 0.13 percent Bacto-agar (Difco). Each strain was then applied to the surface of the petri plate (100 mm. × 15 mm.) by means of a replicator.
(§3) For the agar dilution studies, two-fold dilutions of the test compounds were prepared in deionized water to which was then added laked sheep blood and filter-sterilized menadione so the concentrations after the agar dilution were 5 percent and 10 mcg./ml. respectively. An equal volume of double strength Brucella agar (Becton, Dickinson and Co.) was mixed with each dilution in a water bath held at 50°C. and then poured onto the petri plates.
(§4) All of the procedures were done inside a plastic glove box, except for the incubation of the growth tubes and the pouring of the plates. After the plates hardened, they were put inside the glove box for a minimum of two hours before they were inoculated. Generally, the glove box procedures of Aranki et al., Applied Microbiology 17, 568-576 (1969), were followed, but the following modifications were used. Dry materials were introduced into the glove box by evacuating the lock to 28 inches of mercury and filling once with nitrogen gas, followed by evacuating in the same manner and filling with an 80 percent nitrogen plus 10 percent CO2 plus 10 percent hydrogen gas mixture. Liquid media and agar plates were introduced into the glove box by evacuating the lock to 10 inches of mercury and filling with gas four times. The nitrogen gas was used to fill the lock for the first two cycles of evacuation, with the gas mixture described above used for the final two fillings.
(§5) All the plates were incubated at 37°C. in Gas Pak jars (Becton, Dickinson and Co.) containing palladium-coated alumina catalysts (reactivated after each use). The results of the agar dilution tests were read after about 24 hours of incubation. The minimum inhibitory concentration (MIC) was recorded as the lowest concentration of test compound at which there was no growth.
(§6) The results of these in vitro tests are recorded in Charts 11 and 12 which follow. The test compounds are identified in the same manner as in the previous experiments. The antibiotics cephalothin and erythromycin were also run simultaneously with the novel compounds of this application, for comparison purposes, and the results are included in Charts 11 and 12 below.

[8] = system: Clostridium septicum bovine; assay: as above; assay type: cell-based; details: 24 h, read-out: 24 Hr. Minimum Inhibitory Concentration
Description: as §1, §2, §3, §4, §5, §6

[9] = system: Clostridium perfringens 81; assay: microbe, parasite or virus in culture; assay type: cell-based; details: Clostridium perfringens, 81, 24 h, read-out: 24 Hr. Minimum Inhibitory Concentration
[10] = system: Propionibacterium acnes 44; assay: Susceptibility of anaerobic bacteria, agar dilution; assay type: cell-based; details: Cutibacterium acnes, 24 h; Propionibacterium acnes 44; read-out: 24 Hr. Minimum Inhibitory Concentration
[11] = system: Eubacterium aerofaciens 1235; assay: as above; assay type: cell-based; details: read-out: 24 Hr. Minimum Inhibitory Concentration
[12] = system: Fusobacterium symbiosum 1470; assay: as above; assay type: cell-based; details: read-out: 24 Hr. Minimum Inhibitory Concentration
[13] = system: Peptococcus anaerobius 1428; assay: as above; assay type: cell-based; details: 24 h, read-out: 24 Hr. Minimum Inhibitory Concentration
[14] = system: Bacteroides fragilis sp. vulgatus 1211; assay: as above; assay type: cell-based; details: 24 h, read-out: 24 Hr. Minimum Inhibitory Concentration
[15] = system: Bacteroides fragilis sp. fragilis 1936B; assay: as above; assay type: cell-based; details: 24 h, read-out: 24 Hr. Minimum Inhibitory Concentration
[16] = system: Bacteroides fragilis sp. vulgatus 1563; assay: as above; assay type: cell-based; details: 24 h, read-out: 24 Hr. Minimum Inhibitory Concentration
[17] = system: Fusobacterium necrophorum 13859; assay: as above; assay type: cell-based; details: read-out: 24 Hr. Minimum Inhibitory Concentration
[18] = system: Propionibacterium acnes 79; assay: as above; assay type: cell-based; details: read-out: 24 Hr. Minimum Inhibitory Concentration
[19] = system: Clostridium innocuum 1373; assay: as above; assay type: cell-based; details: read-out: 24 Hr. Minimum Inhibitory Concentration
[20] = system: Salmonella typhimurium; assay: Control of infections caused by Salmonella typhimurium in chickens, subcutaneous (Experiment 2); assay type: in vivo; details: Salmonella enterica, sc, 144 h, 6 days, read-out: Survival Ratio (converted); for responders at 7.5 mg/kg: 7.5 mg./kg. subcutaneous; for responders at 15 mg/kg: 15 mg./kg. subcutaneous; for responders at 30 mg/kg: 30 mg./kg. subcutaneous; for responders at 60 mg/kg: 60 mg./kg. subcutaneous
Description: The efficacy of the novel compounds in the control of infections caused by Salmonella typhimurium in chickens was evaluated in the following manner.
The test was carried out using day-old chicks weighing approximately 35 g. each. The chicks were divided into groups of 5 chicks per each dosage level. A portion of the chicks received the test compound which was suspended in 0.2 ml. of polyethylene glycol 200 and administered subcutanusly in the neck. […] All the chicks were challenged with a 1:200 dilution of a culture of the organism, 0.1 ml. of the dilution being injected into each chick in the leg intramuscularly. […] The test compounds are identified in the same manner as set forth in Experiment 1.
In the chart, column 1 lists the compounds tested; column 2, the dosage of test compound in mg./kg.; and column 3, the survival ratio.

[21] = Thomasclavelia ramosa, 1313, 24 h
[22] = Collinsella aerofaciens, 1235, 24 h
[23] = Fusobacterium necrophorum, 13859, 24 h
[24] = [Clostridium] innocuum, 1373, 24 h

Structure (SMILES)	MIC [1, 21] [µg/mL]	MIC ([2]; Veillonella parvula, 1, 24 h) [µg/mL]	MIC [3] [µg/mL]	MIC ([4]; Actinomyces bovis, 13684, 24 h) [µg/mL]	MIC ([5]; Bacteroides fragilis) [µg/mL]	MIC ([6]; Bacteroides fragilis) [µg/mL]	MIC [7] [µg/mL]	MIC [8] [µg/mL]	MIC [9] [µg/mL]	MIC [10] [µg/mL]	MIC [11, 22] [µg/mL]	MIC ([12]; Fusobacterium, 1470, 24 h) [µg/mL]	MIC [13] [µg/mL]	MIC ([14]; Bacteroides fragilis) [µg/mL]	MIC ([15]; Bacteroides fragilis) [µg/mL]	MIC ([16]; Bacteroides fragilis) [µg/mL]	MIC [17, 23] [µg/mL]	responders at 15 mg/kg [20] [%]	responders at 30 mg/kg [20] [%]	responders at 60 mg/kg [20] [%]	further results
CC=CC=Nc1c(C#N)c(-c2ncc([N+](=O)[O-])n2C)nn1C [Compound 18, 5-(2-butenylideneamino)-1-methyl-3-(1-methyl-5-nitro-2-imidazolyl)pyrazole-4-carbonitrile]	< 0.125	< 0.125	0.25 (≈ 0.835 µM)	< 0.125	< 0.125	< 0.125	< 0.125	< 0.125	< 0.125	> 32	< 0.125	< 0.125	< 0.125	< 0.125	< 0.125	< 0.125	< 0.125	53.3	66.7	66.7	MIC ([18]; Cutibacterium acnes, 79, 24 h): < 0.125 µg/mL; MIC [19, 24]: < 0.125 µg/mL; responders at 7.5 mg/kg [20]: 0%
Cn1c([N+](=O)[O-])cnc1-c1nn(CCO)c(N)c1C#N [Compound 14, 5-Amino-1-(2-hydroxyethyl)-3-(1-methyl-5-nitro-2-imidazolyl)pyrazole-4-carbonitrile]	< 0.125	< 0.125	1 (≈ 3.61 µM)	< 0.125	< 0.125	< 0.125	< 0.125	< 0.125	< 0.125	> 32	< 0.125	< 0.125	< 0.125	< 0.125	< 0.125	< 0.125	< 0.125	6.67	40	93.3	MIC ([18]; Cutibacterium acnes, 79, 24 h): < 0.125 µg/mL; MIC [19, 24]: < 0.125 µg/mL; responders at 7.5 mg/kg [20]: 20%
CC(=O)Nc1c(C#N)c(-c2ncc([N+](=O)[O-])n2C)nn1C [Compound 8, N-[4-cyano-1-methyl-3-(1-methyl-5-nitro-2-imidazolyl)pyrazol-5-yl]acetamide]			4 (≈ 13.8 µM)				0.25 (≈ 0.864 µM)	1 (≈ 3.46 µM)	1 (≈ 3.46 µM)	> 8								0	20	60	MIC ([1]; Thomasclavelia ramosa, 24 h, Clostridium ramosum 1313): 0.25 µg/mL (≈ 0.864 µM); MIC ([2]; Veillonella parvula, 24 h, Veillonella alcalescens 1): 0.03 µg/mL (≈ 0.104 µM); MIC ([4]; 24 h, Actinomyces bovis 13684): 4 µg/mL (≈ 13.8 µM); MIC ([5]; Bacteroides fragilis sp. fragilis 1877): 0.25 µg/mL (≈ 0.864 µM); MIC ([6]; Bacteroides fragilis sp. thetaiotaomicron 1438): 0.5 µg/mL (≈ 1.73 µM); MIC ([11]; Collinsella aerofaciens, 24 h, Eubacterium aerofaciens 1235): 0.125 µg/mL (≈ 0.432 µM); MIC ([12]; 24 h, Fusobacterium symbiosum 1470): 0.03 µg/mL (≈ 0.104 µM); MIC ([13]; Peptococcus anaerobius 1428): 1 µg/mL (≈ 3.46 µM); MIC ([14]; Bacteroides fragilis sp. vulgatus 1211): 0.25 µg/mL (≈ 0.864 µM); MIC ([15]; Bacteroides fragilis sp. fragilis 1936B): 0.25 µg/mL (≈ 0.864 µM); MIC ([16]; Bacteroides fragilis sp. vulgatus 1563): 0.25 µg/mL (≈ 0.864 µM); MIC ([17]; 24 h, Fusobacterium necrophorum 13859): 0.06 µg/mL (≈ 0.207 µM); MIC ([18]; Cutibacterium acnes, 24 h, Propionibacterium acnes 79): 0.03 µg/mL (≈ 0.104 µM); MIC ([19]; 24 h, Clostridium innocuum 1373): 1 µg/mL (≈ 3.46 µM)
